pEC50, pKd: −log10 of the molar value. Read-outs that look alike come from different tables or passages of the source.
Tests used:
[1] = target: BRD4-BD2 (Homo sapiens (Human), UniProt O60885); test: competitive TR-FRET assay, BET-BD with acetylated peptide ligand; assay type: binding; conditions: for pEC50: BRD4-BD2, Table 11 additional modifications, read-out: 4.2 EC50
Description: (§1) Inhibitor potency was determined using a competitive TR-FRET assay as detailed herein, measuring interaction of the respective BET-BD with an acetylated peptide ligand (Table 2).

[2] = target: BRDT (Homo sapiens, UniProt Q58F21); test: as above; assay type: binding
Description: as §1

[3] = target: BRD3-BD1 (Homo sapiens (Human), UniProt Q15059); test: as above; assay type: binding; conditions: for EC50: Table 6, read-out: EC50 (μM) BRD3(1)
Chain of BRD3-BD1 (Q15059 34-140): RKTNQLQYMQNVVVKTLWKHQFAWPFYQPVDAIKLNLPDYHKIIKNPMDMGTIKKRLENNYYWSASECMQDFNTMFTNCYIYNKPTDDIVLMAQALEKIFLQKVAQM
Description: as §1

[4] = target: BRD2-BD1 (Homo sapiens (Human), UniProt P25440); test: as above; assay type: binding; conditions: for pEC50: BRD2-BD1, Table 11 additional modifications, read-out: 2.1 EC50; for EC50: read-out: EC50 (μM) BRD2(1)
Chain of BRD2-BD1 (P25440 74-180): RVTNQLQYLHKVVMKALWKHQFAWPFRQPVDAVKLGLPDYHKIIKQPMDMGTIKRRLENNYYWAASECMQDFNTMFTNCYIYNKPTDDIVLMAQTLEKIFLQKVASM
Description: as §1

[5] = target: BRD4-BD1 (Homo sapiens (Human), UniProt O60885); test: as above; assay type: binding; conditions: for pEC50: BRD4-BD1, Table 11 additional modifications, read-out: 4.1 EC50
Description: as §1

[6] = target: BRD2-BD2 (Homo sapiens (Human), UniProt P25440); test: as above; assay type: binding; conditions: for pEC50: BRD2-BD2, Table 11 additional modifications, read-out: 2.2 EC50; for 2.1/2.2: ratio of BRD2-BD1 EC50 to BRD2-BD2 EC50 (selectivity); for EC50: read-out: EC50 (μM) BRD2(2)
Chain of BRD2-BD2 (P25440 344-453): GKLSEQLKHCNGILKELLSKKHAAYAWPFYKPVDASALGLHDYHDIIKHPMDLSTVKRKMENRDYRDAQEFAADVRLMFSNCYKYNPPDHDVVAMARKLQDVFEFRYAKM
Description: as §1

[7] = target: BRDT(1) (Homo sapiens (Human), UniProt Q58F21); test: BROMOscan KD determination; assay type: binding; conditions: Table 10
Excerpt: (§2) DiscoverX® can screen compounds against all ˜42 bromodomains (a service called BROMOscan) and perform follow-up KD determination. This service is considered the industrial standard for bromodomain inhibitor comparisons. […] Dots are symbolic of inhibition of the compound at this concentration; the larger the size of the dot, the greater the activity of the compound. […] Though these compounds are selective for the BET family, the selectivity within the BET family is poor. The results of a competitive binding experiment between compounds 19 (left), 41 (center), and 56 (right) (at a single concentration, 1 μM) and a control for each of the bromodomains are shown in FIG. 5.

[8] = target: BRDT(2) (Homo sapiens (Human), UniProt Q58F21); test: BROMOscan KD determination; assay type: binding; conditions: for T(1)/T(2): BROMOscan KD ratio; for pKd: BROMOscan, Table 10
Excerpt: as §2

[9] = target: BRD2(1) (Homo sapiens (Human), UniProt P25440); test: BROMOscan KD determination; assay type: binding; conditions: Table 10
Chain of BRD2(1) (P25440 74-180): as the sequence (P25440 74-180) above
Excerpt: as §2

[10] = target: BRD2(2) (Homo sapiens (Human), UniProt P25440); test: BROMOscan KD determination; assay type: binding; conditions: for [2(1)/2(2)]: BROMOscan KD ratio; for pKd: BROMOscan, Table 10
Chain of BRD2(2) (P25440 344-453): as the sequence (P25440 344-453) above
Excerpt: as §2

[11] = target: BRD3(1) (Homo sapiens (Human), UniProt Q15059); test: BROMOscan KD determination; assay type: binding; conditions: Table 10
Chain of BRD3(1) (Q15059 34-140): as the sequence (Q15059 34-140) above
Excerpt: (§3) DiscoverX® can screen compounds against all ˜42 bromodomains (a service called BROMOscan) and perform follow-up KD determination. This service is considered the industrial standard for bromodomain inhibitor comparisons.

[12] = target: BRD3(2) (Homo sapiens (Human), UniProt Q15059); test: BROMOscan KD determination; assay type: binding; conditions: for 3(1)/3(2): BROMOscan KD ratio; for pKd: BROMOscan, Table 10
Chain of BRD3(2) (Q15059 306-415): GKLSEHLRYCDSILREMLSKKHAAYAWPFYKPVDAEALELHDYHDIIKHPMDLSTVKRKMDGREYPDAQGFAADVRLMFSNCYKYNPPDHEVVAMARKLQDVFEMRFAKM
Excerpt: as §3

[13] = target: BRD4(2) (Homo sapiens (Human), UniProt O60885); test: BROMOscan KD determination; assay type: binding; conditions: for 4(1)/4(2): BROMOscan KD ratio; for pKd: BROMOscan, Table 10
Excerpt: as §3

[14] = target: BRD4(1) (Homo sapiens (Human), UniProt O60885); test: BROMOscan KD determination; assay type: binding; conditions: Table 10
Excerpt: as §3

[15] = system: c-Myc expression in HDMB03 cells; test: c-Myc expression inhibition, high content microscopy (HCM); assay type: cell-based, human; conditions: Homo sapiens, read-out: EC50 (μM) Myc-inhibition
Description: 3000 human G3 medulloblastoma or 2000 mouse SHH medulloblastoma cells per well were plated into 384-well plates (6007710, Perkin Elmer) in 30 μL of supplemented neurobasal medium using a Wellmate automated dispenser (Thermo Matrix). After 24 hours, 125 nl of compound was transferred via pin tool, resulting in a final drug concentration from 2 nM to 40 μM. 72 hours after adding the drug, the plates were fixed with 4% formaldehyde for 20 min. After fixation the cells were then washed 3 times with 75 μl of PBS. The cells were then permeabilized with 0.1% Triton-X 100 for 15 minutes at 25° C. and blocked using 1% BSA in PBS for 1 hour at 25° C. The primary antibody against c-Myc Ab (#9402, Cell Signaling) at a 1:400 dilution was diluted in 1% BSA in PBS. This mixture was added to each well before incubation overnight at 4° C. Each well was then washed 3 times with PBS using a Biotek ELX405 Select plate washer, and incubated for 1 hour at 25° C. with a solution containing 1/400 goat α-rabbit-Alexa-488 (4412S, Cell Signaling) and 1 μM Hoechst 33342 to detect nuclear material (H3570, Molecular Probes). Two images were captured of each well at 10× using a GE Healthcare InCell 6000 at 405 nM to detect nuclear staining and 488 nM to detect c-Myc. All data were analyzed using the multi-target analysis algorithm of the GE InCell Analyzer Workstation software. The number of nuclear objects in each well, as well as all nuclear measurements, was determined through nuclear masks over the Hoechst staining. C-Myc staining was then measured using top-hat segmentation in the entire cell.

[16] = system: HDMB03 cells; test: cell viability, CellTiter-Glo; assay type: cell-based, human; conditions: Homo sapiens, read-out: EC50 (μM) HDMB03
Description: Human G3 medulloblastoma or mouse SHH medulloblastoma cells were grown as neurospheres in supplemented neurobasal medium, as previously described (Kawauchi et al., 2012.)
(§4) After 7 days of treatment, an equal volume of CellTiter-Glo reagent (G7572, Promega) was added and the luminescence signal was measured using an automated Envision plate reader (Perkin-Elmer). Luminescence data were normalized by log10 transformation prior to calculating the percent inhibition using the following equation:
(§5) 100*(negative control mean −compound value)/(negative control mean −positive control mean).
High-throughput assay data were analyzed using Robust Interpretation of Screening Experiments (RISE) application written in Pipeline Pilot (Accelrys, v. 8.5) and the R program (R Development Core Team).
Dose-response curves were calculated by regressing the median percent inhibition obtained over triplicate experiments to log 10-transformed concentrations. Non-linear regression was then performed using the R drc package with the four parameter log-logistic function (LL2.4) (Ritz and Streibig, 2009). Curves were fit under three different constraints: (1) all parameters free, (2) high response fixed to 100, (3) low response fixed to 0; and the best fit from these three nested models was selected using the anova.drc function.

[17] = system: MV-4-11; test: anti-proliferative activity; assay type: cell-based; conditions: Homo sapiens, MV4-11; Table 7
Description: as §4, §5

[18] = BRDT, Table 11 additional modifications, read-out: BRDT EC50
[19] = BRD3-BD1, Table 11 additional modifications, read-out: 3.1 EC50
[20] = Table 6, head names no target, BRDT by comparison with Table 4, read-out: EC50

Structure (SMILES)	pEC50 [2, 18]	pEC50 [3, 19]	pEC50 [4]	pEC50 [5]	pEC50 [6]	2.1/2.2 [6]	pKd [7]	T(1)/T(2) [8]	pKd [8]	pKd [9]	[2(1)/2(2)] [10]	pKd [10]	pKd [11]	3(1)/3(2) [12]	pKd [12]	4(1)/4(2) [13]	pKd [13]	pKd [14]	EC50 ([15]; HD-MB03, Table 5) [µM]	pEC50 ([2]; Table 4, read-out: BRDT EC50)	other results
CC(=O)Nc1cccc(-c2ccc3c(c2)[C@H](Nc2ccc4ncccc4c2)C[C@H](C)N3C(C)=O)c1 [compound 13]	5.60	5.96	6.06	5.89	4.23	0.015	7.70	2.9	8.16	7.55	14.0	8.70	7.66	28.2	9.11	13.1	8.89	7.77	–	–	pEC50 [1]: 4.22
CC(=O)Nc1cccc(-c2ccc3c(c2)[C@H](Nc2ccc(F)cc2)C[C@H](C)N3C(C)=O)c1 [compound 39]	–	–	–	–	–	–	–	–	–	–	–	–	–	–	–	–	–	–	0.04	5.00	4(1)/4(2) ([1]; Table 4, ratio of EC50): 63; EC50 ([1]; Table 4, read-out: EC50 (μM) BRD4(2)): 0.09 µM; pEC50 ([3]; Table 4, read-out: BRD3(1)): 5.57; EC50 ([4]; Table 4): 5.6 µM; EC50 ([5]; Table 4, read-out: EC50 (μM) BRD4(1)): 5.7 µM; [2(1)/2(2)] ([6]; Table 4, ratio of EC50): 51; EC50 ([6]; Table 4): 0.11 µM; EC50 ([16]; HD-MB03, Table 5): 1.68 µM
CC(=O)Nc1cccc(-c2ccc3c(c2)[C@H](Nc2ccccc2C(F)(F)F)C[C@H](C)N3C(C)=O)c1 [compound 41]	–	–	–	–	–	–	6.54	9.4	7.51	6.10	49.4	7.80	6.30	138.9	8.44	64.1	8.19	6.39	6.2	4.28	pEC50 ([3]; Table 4, read-out: BRD3(1)): 4.70; EC50 ([4]; Table 4): 70 µM; [2(1)/2(2)] ([6]; Table 4, ratio of EC50): 57; EC50 ([6]; Table 4): 0.35 µM; EC50 ([16]; HD-MB03, Table 5): 1.6 µM
COc1cc(F)ccc1N[C@@H]1C[C@H](C)N(C(C)=O)c2ccc(-c3cccc(NC(C)=O)c3)cc21 [compound 42]	–	–	–	–	–	–	–	–	–	–	–	–	–	–	–	–	–	–	> 10	< 4.85	pEC50 ([3]; Table 4, read-out: BRD3(1)): < 4.85; EC50 ([4]; Table 4): 13 µM; [2(1)/2(2)] ([6]; Table 4, ratio of EC50): >100; EC50 ([6]; Table 4): 0.14 µM; EC50 ([16]; HD-MB03, Table 5): 0.76 µM
COC(=O)c1ccc(N[C@@H]2C[C@H](C)N(C(C)=O)c3ccc(-c4cccc(NCc5ccoc5)c4)cc32)cc1 [compound 43]	–	–	–	–	–	–	–	–	–	–	–	–	–	–	–	–	–	–	–	–	EC50 ([15]; HD-MB03, Table 7): 0.88 µM; pEC50 [2, 20]: 5.92; EC50 [3]: 0.41 µM; EC50 ([4]; Table 6): 0.51 µM; [2(1)/2(2)] ([6]; Table 6, ratio of EC50): 10; EC50 ([6]; Table 6): 0.05 µM; EC50 [17]: 0.007 µM; EC50 ([16]; HD-MB03, Table 7): 1.5 µM
CCCCCNc1cccc(-c2ccc3c(c2)[C@H](Nc2ccc(C(=O)OC)cc2)C[C@H](C)N3C(C)=O)c1 [compound 44]	–	–	–	–	–	–	–	–	–	–	–	–	–	–	–	–	–	–	–	–	EC50 ([15]; HD-MB03, Table 7): 0.3 µM; pEC50 [2, 20]: 5.13; EC50 [3]: 2.1 µM; EC50 ([4]; Table 6): 2.7 µM; [2(1)/2(2)] ([6]; Table 6, ratio of EC50): 22.5; EC50 ([6]; Table 6): 0.12 µM; EC50 [17]: 0.035 µM; EC50 ([16]; HD-MB03, Table 7): 0.39 µM
COC(=O)c1ccc(N[C@@H]2C[C@H](C)N(C(C)=O)c3ccc(-c4ccnn4C)cc32)cc1 [compound 49]	–	–	–	–	–	–	7.77	6.1	8.55	7.64	13.5	8.77	7.96	6.9	8.80	12.7	8.96	7.85	–	–	EC50 ([15]; HD-MB03, Table 9, c-Myc expression inhibition in HDMB03 cells): 5.1 µM; pEC50 ([2]; Table 8, head names no target, BRDT by comparison with Table 4, read-out: EC50): 5.36; pEC50 ([3]; Table 8, read-out: BRD3(1)): 6.05; EC50 ([4]; Table 8): 1.4 µM; EC50 ([6]; Table 8): 0.14 µM; EC50 ([16]; HD-MB03, Table 9, cancer cell proliferation inhibition): 1.6 µM
CCCOc1cccc(-c2ccc3c(c2)[C@H](Nc2ccc(C(=O)OC)cc2)C[C@H](C)N3C(C)=O)c1 [compound 56]	4.92	5.09	5.09	< 4.20	6.30	16	7.02	4.1	7.64	6.80	19.5	8.09	7.00	23.0	8.37	31.8	8.36	6.85	–	–	–
CC(=O)N1c2ccc(-c3cccc(-n4cccn4)c3)cc2[C@H](Nc2ccc(Cl)cc2)C[C@@H]1C [compound 136]	5.00	5.00	4.77	4.77	6.72	63	6.66	3.3	7.18	6.46	21.9	7.80	6.66	29.3	8.12	35.1	8.11	6.57	–	–	pEC50 [1]: 6.60

Reference: patent publication US11028051B2, “Tetrahydroquinoline-based bromodomain inhibitors” (St. Jude Children's Research Hospital, priority 2016, dated 2021)
